Consider three molecules from patent US20170363632A1, “Biomarker Kit for Metastatic Breast Cancer Prognosis and Uses Thereof” (University of Maryland, Baltimore, priority 2016, published 2017).

For data set [1], the system named is obscurin-knockdown MCF10A cells. Description: Wound healing assay. The format is cell-based. Particulars: DMSO vehicle ≧20%. Here is the method:
Wound healing was measured by growing confluent MCF10A cell monolayers stably expressing obscurin shRNA in six-well tissue culture dishes (Corning). A scrape was made through the monolayer with a sterile plastic pipette tip and fresh media containing LY294002, BKM120, or DMSO vehicle control was added at the indicated concentrations. Images were taken with an inverted microscope (10× objective) at time 0 h and after a 6 h incubation period at 37° C., 5% CO2. Migration was expressed as the average of the difference between the measurement at time zero and 6 h obtained from 3 independent experiments.

The test system of data set [2] is PI3K pathway (phosphorylation levels of AKT) in obscurin-knockdown MCF10A cells. Description: Western blot of AKT phosphorylation after PI3K inhibitor treatment. It counts as cell-based. Here is the method: (§1) Cell lysates were prepared in radioimmuno-precipitation assay (RIPA) buffer supplemented with cocktails of protease inhibitors (Roche, Mannheim, Germany), and phosphatase inhibitors ([…], 100 mM Sodium Flouride, 115 mM Sodium Molybdate, 100 mM Sodium Orthovanadate, 400 mM Sodium Tartrate Dihydrate, 100 mM β-Glycerophosphate, 100 mM Sodium Pyrophosphate, and 10 mM EGTA). Protein lysates were electrophoresed on SDS-NuPAGE gel (Thermo Fisher Scientific, Waltham, Mass.), transferred to nitrocellulose membranes, and probed with primary antibodies as specified in the text, and the appropriate […] secondary antibodies (Jackson ImmunoResearch Laboratories). Immunoreactive bands were visualized using AMERSHAM ECL prime western blotting detection reagent (GE Healthcare Life Sciences), and densitometry was performed with Image J software. Treatment of cells followed by lysate preparation and immunoblotting analysis was repeated at least three independent times.
(§2) To verify the effectiveness of the two inhibitors in suppressing the PI3K pathway, whether the phosphorylation levels of AKT were reduced following treatment was examined. […] Whether inhibition of PI3K reverses epithelial to mesenchymal transition in obscurin-knockdown cells was evaluated.
(In general: Immunoblotting shows a protein as a band on a membrane.)

In data set [3] the test system is obscurin-knockdown MCF10A cells. Description: Matrigel invasion assay. The format is cell-based. The conditions noted are these: dose-dependent, 16 h. Here is the method: Invasion was measured by adding 250,000 cells suspended in 0.5 mL growth media containing the specified concentration of LY294002, BKM120, or DMSO vehicle control to the upper chamber of a Matrigel-coated invasion chamber (BD Biosciences, San Jose, Calif.). The lower chamber contained growth media supplemented with 10% FBS. The inserts were incubated at 37° C., 5% CO2 for 16 h. At the end of the 16 h incubation period, the cells that had invaded in the lower chamber were fixed and stained with 0.5% crystal violet in 20% methanol. The number of invaded cells was quantified by counting at least 6 random fields from 3 independent experiments under an inverted light microscope (Olympus IX51) with a 10× objective.

The subject of data set [4] is adherent MCF10A obscurin-knockdown or scramble control cells. Description: Cell viability, AlamarBlue assay. The format is cell-based. The conditions noted are these: different concentrations of BKM120, 24 h. Here is the method:
(§3) Cell viability of MCF10A obscurin-knockdown and scramble control cells treated with the specified concentrations of LY294002 and BKM120 inhibitors or vehicle DMSO for 24 h was measured using the AlamarBlue assay (Life Technologies) (9). In brief, the AlamarBlue reagent was added to the cell culture at 10% v/v and incubated for 16 h at 37° C., 5% CO2. The percentage (%) of AlamarBlue reduction was determined by measuring absorbance at 550 and 620 nm. Data are presented as the percentage of AlamarBlue reduced per number of cells.
(In general: The colour change of resazurin is a common sign of viable cells or microbes.)

For data set [5], the system named is MCF10A obscurin-knockdown cells. Kind of data set: Bright-field microscopy of cell morphology and cell-cell junctions. The format is cell-based. The conditions noted are these: 1 mM BKM120. An excerpt:
Taken together, these findings indicate that blockade of the PI3K pathway in obscurin-depleted breast epithelial cells via pharmacological treatment or molecular means effectively reverses epithelial to mesenchymal transition.

For data set [6], the system named is obscurin-knockdown MCF10A cells. Kind of data set: Microchannel single cell migration. It counts as cell-based. The arrangement: dose or concentration left out as unconfirmed. Here is the method: The microchannel device was fabricated by standard lithography and coated with 20 μg/mL collagen type I (BD Biosciences, San Jose, Calif.) (12-16). Cells were trypsinized, resuspended in serum-containing media to neutralize the trypsin, and subsequently washed in serum-free media. A suspension of 5×10^4 cells was added to the inlet port, and cells were transported along the seeding channel by pressure-driven flow. Within 5 min, the cell suspension was removed and replaced with 100 μL of serum-free media containing the specified concentrations of LY294002, BKM120, or DMSO vehicle control. Serum-containing media with the indicated concentrations of LY294002, BKM120, or DMSO was added to the top-most inlet port, thus forming a chemoattractant gradient. Chambers were placed in an enclosed, humidified microscope stage at 5% CO2 and 37° C. (TIZ, Tokai Hit Co., Japan or Okolab, Italy). […] Instantaneous cell velocity was calculated by dividing each interval displacement by the time interval (20 min), and the mean velocity for a given cell was computed by averaging instantaneous velocities for all time intervals. Chemotactic index was calculated by dividing the end-to-end displacement by the total path length of the cell. […]

Data set [7] has the same test system. Kind of data set: Western blot of epithelial and mesenchymal (EMT) proteins after PI3K inhibitor treatment. The format is cell-based. Here is the method:
as §1, §2

Data set [8] shares this test system. Description: Mammosphere culture in ultra-low attachment conditions. Particulars: for reduction in mammosphere formation: spheres ≧100 μm. It counts as cell-based. The arrangement: mammosphere formation: dose or concentration left out as unconfirmed. Here is the method: Single MCF10A cells stably transduced with obscurin shRNA were plated in ultralow attachment plates (Corning, Lowell, Mass., USA) at a density of 10,000 cells/mL in 2 mL serum-free growth media (DMEM/F12 with GlutaMAX™), supplemented with insulin (10 μg/mL), hydrocortisone (0.5 μg/mL), cholera toxin (100 ng/mL), epidermal growth factor (20 ng/mL), 1% penicillin-streptomycin and puromycin (1.5 μg/mL). Twenty-four hours following initial plating, cell cultures were supplemented with 2 mL serum-free growth media that contained the indicated concentration of LY294002, BKM120, or DMSO vehicle control every day for 10 days at which time point spheres were measured and those ≧100 μm were counted as tumor spheres.

The nature of data set [9]: Cell viability, AlamarBlue assay. The format is cell-based. Particulars: human, adherent MCF10A obscurin-knockdown or scramble control cells; 25 µM LY294002, 24 h; read-out: decrease in cell viability (reduction of AlamarBlue). Here is the method:
as §3

Data set [10] deals with T1, GST-obscurin-PH (human, UniProt Q5VST9 5895-6004).
T1 construct: domain: Pleckstrin Homology (PH) domain; Expressed in bacteria, about 37 kDa; also called GST-obscurin-PH domain; recombinant obscurin-PH domain fused to GST; not shown: glutathione-S-transferase (GST) tag encoded by the PGEX vector (GE Healthcare)
T1 sequence (looked up): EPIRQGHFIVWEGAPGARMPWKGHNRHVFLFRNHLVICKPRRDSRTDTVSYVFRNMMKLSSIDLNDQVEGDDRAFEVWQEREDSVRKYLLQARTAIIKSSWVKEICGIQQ
Description: SPR, Biacore 3000; GST-obscurin-PH immobilized on CM5 chip, HIS-PI3K/p85-SH3 as analyte at 8-250 nM; 1:1 Langmuir model. Here is the method:
Surface plasmon resonance was performed using a BiaCore 3000 instrument as described (6, 19, 21). In particular, the GST-obscurin-PH domain was used as ligand and was immobilized on a carboxymethyl-dextran sensor (CM5) chip, while the HIS-PI3K-p85/SH3 domain was used as analyte at varying concentrations ranging from 8-250 nM. The flow rate for analyte injection was 20 μl/min. For each analyte concentration, association was measured for 180 sec and dissociation was measured over another 180 sec. Data were evaluated with the 1:1 Langmuir model and the Heterogeneous Ligand model (BIAevaluation Software 3.1, Biacore). The association (kₐ, M⁻¹ s⁻¹) and dissociation (kd, s⁻¹) rate constants as well as the association (KA, M⁻¹) and dissociation (KD, M) equilibrium constants were determined.
A general note: SPR reads the build-up and loss of mass on a sensor chip optically.

For data set [11], the target named is T2, control GST-protein (UniProt P08515 1-218 = GST).
T2 construct: Negative control in the GST pull-down; also called GST-alone
T2 sequence (P08515 whole entry): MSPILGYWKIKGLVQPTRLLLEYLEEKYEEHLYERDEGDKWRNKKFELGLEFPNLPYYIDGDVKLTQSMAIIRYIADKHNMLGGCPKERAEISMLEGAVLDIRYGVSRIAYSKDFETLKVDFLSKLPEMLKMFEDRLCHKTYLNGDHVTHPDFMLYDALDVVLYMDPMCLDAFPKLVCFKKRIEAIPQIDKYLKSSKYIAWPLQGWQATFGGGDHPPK
Description: GST pull-down on glutathione-Sepharose beads, immunoblot with His-tag antibody. As for the experimental part:
GST-pull down assays were performed (19, 20). Equivalent amounts of control GST-protein and GST-obscurin-PH were bound to glutathione-Sepharose beads and incubated with 3 mg/mL of His-tagged PI3K/p85-SH3 protein overnight at 4° C. in pull-down buffer (50 mM Tris, pH 7.5, 120 mM NaCl, 10 mM NaN3, 2 mM DTT, and 0.5% Tween). At the end of the incubation period, beads were washed five times with wash buffer (PBS with 10 mM NaN3 and 0.1% Tween), and bound proteins were eluted with 2× LDS buffer (Invitrogen), followed by boiling at 95° C. for 10 min and separation on a 4-12% bis-Tris gel. A His6-antibody (sc-803, Santa Cruz Biotechnology) was used for detection of immunoreactive bands with the Tropix chemiluminescence detection kit (Applied Biosystems).

Entries after “also recorded” stand apart in the source; their conditions may differ.

`Nc1cc(C(F)(F)F)c(-c2cc(N3CCOCC3)nc(N3CCOCC3)n2)cn1` [BKM120] had a wound healing in [1] (1 mM BKM120, after 6 h) of around 6%. For the same molecule, in data set [2] (1 μM BKM120), the “phosphorylation level of AKT at serine-473 compared to vehicle DMSO” value was 0.3 fold and the “phosphorylation level of AKT at threonine-308 compared to vehicle DMSO” value is given as 0.1 fold. Further, in [3] (BKM120 0-1 mM), the “reduction in cell invasiveness relative to DMSO” value is 15-60%. For the same molecule, the “cell viability (reduction of AlamarBlue) versus vehicle DMSO” value in data set [4] was “No significant changes; also recorded: did not affect their survival and growth”. Further, the “cell morphology and cell-cell junction formation” value in data set [5] was “(re)acquired an epithelial appearance and were able to form cell-cell junctions”. In addition, the “migration speed compared to DMSO treated cells” value in data set [6] (microchannels 6, 10, 20 and 50 mm wide) is recorded as “significantly reduced migration”. Besides, the “chemotactic index (CI) relative to vehicle control” value in [6] (statistically significant in narrow channels (6 mm)) was “lower chemotactic index”. Moreover, in data set [7] (1 μM BKM120), the “expression level of E-cadherin (increase)” value was found to be 2.1 fold, the “expression level of N-cadherin (decrease)” value turned out to be 0.5 fold, the “expression level of Slug (decrease)” value was 0.3 fold and the “expression level of Twist (decrease)” value is given as 0.5 fold. Further, the “expression level of β-catenin (increase)” value in data set [7] (1 μM BKM120) worked out at 5 fold. In data set [8] (0.1 mM BMK120, 10 days), the “reduction in mammosphere formation” value is listed as 18%. In addition, the “reduction in mammosphere formation” value in data set [8] (0.5 mM BMK120, 10 days) was 89%. Moreover, the mammosphere formation result in [8] (BKM120, 10 days) was “completely eliminated mammosphere formation”.

For the molecule `O=c1cc(N2CCOCC2)oc2c(-c3ccccc3)cccc12` [LY294002], in data set [1] (25 mM LY294002, after 6 h), the wound healing is around 6%. Also, in data set [2] (25 μM LY294002), the “phosphorylation level of AKT at serine-473 compared to vehicle DMSO” value is recorded as 0.4 fold and the “phosphorylation level of AKT at threonine-308 compared to vehicle DMSO” value worked out at 0.4 fold. The “reduction in cell invasiveness relative to DMSO” value in data set [3] (LY294002 0-25 mM) is 50-95%. In data set [9], the cytotoxicity at 24 h, 25 µM is around 5%. In data set [7] (25 μM LY294002), the “expression level of E-cadherin (increase)” value turned out to be 1.8 fold, the “expression level of N-cadherin (decrease)” value was 0.3 fold, the “expression level of Slug (decrease)” value turned out to be 0.6 fold and the “expression level of Twist (decrease)” value was 0.4 fold. Besides, in data set [7] (25 μM LY294002), the “expression level of β-catenin (increase)” value was found to be 1.3 fold. In addition, in data set [8] (5 mM LY294002, 10 days), the “reduction in mammosphere formation” value was 36%. The “reduction in mammosphere formation” value in data set [8] (10 mM LY294002, 10 days) is 58%.

B1: HIS-PI3K/p85-SH3 (other, human, UniProt O00459 4-80, looked up)
chain: PEGFQYRALYPFRRERPEDLELLPGDVLVVSRAALQALGVAEGGERCPQSVGWMPGLNERTRQRGDFPGTYVEFLGP
notes: domain: Src Homology 3 (SH3) domain; Expressed in bacteria, about 10 kDa; also called His-tagged PI3K/p85-SH3 protein; HIS-PI3K-p85/SH3 domain; not shown: His tag and vector-encoded residues of pET-30a(+)
For orientation: Kd means a measure of binding affinity in units of concentration. B1 registered an equilibrium dissociation constant (Kd) in data set [10] of around 50 nM. Also, in [11], the binding result was “no binding (tested: 3 mg/mL of His-tagged PI3K/p85-SH3)”.
